Among the data in DBAASP are MIC values, retold here.

Experiment in all cases: ≥ marks a high value that may be exact or a test limit, other limits are often not marked, values filed in µg/mL are converted to µM
Experiment [1] has as its system Bacillus subtilis ATCC 6633.
For experiment [2], the system named is Pseudomonas aeruginosa ATCC 27853.
Experiment [3] relates to Escherichia coli ATCC 25922.
Experiment [4] concerns Staphylococcus aureus ATCC 25923.
Experiment [5] concerns Staphylococcus epidermidis ATCC 12228.
Experiment [6] relates to Klebsiella pneumoniae ATCC 700603.
Experiment [7] concerns Staphylococcus aureus ATCC 29213.
For experiment [8], the system named is Candida albicans ATCC 90028.
Experiment [9] has as its system Salmonella typhimurium KCTC 1926.
Experiment [10] deals with Candida albicans.
The subject of experiment [11] is Pseudomonas aeruginosa ATCC 9027.
Experiment [12] relates to Acinetobacter baumannii.
Experiment [13] deals with Enterococcus faecalis ATCC 29212.
The test system of experiment [14] is Candida albicans ATCC 10231.
Experiment [15] relates to Staphylococcus aureus.
Experiment [16] deals with Escherichia coli.

≈ marks a conversion by molar mass, not a printed value. Some results are limits rather than exact numbers.

For `CC(=O)N[C@@H](CCCCN)C(=O)N[C@@H](Cc1ccccc1)C(=O)N[C@@H](CC(C)C)C(=O)N[C@@H](CCCCN)C(=O)N[C@@H](CC(C)C)C(=O)N[C@@H](CCCCN)C(=O)N[C@@H](Cc1c[nH]c2ccccc12)C(=O)N[C@@H](CC(C)C)C(=O)N[C@@H](CCCCN)C(=O)N[C@@H](CO)C(=O)N[C@@H](Cc1c[nH]c2ccccc12)C(=O)N[C@@H](CCCCN)C(=O)N[C@@H](CC(N)=O)C(=O)N[C@@H](Cc1ccccc1)C(=O)N[C@@H](CCCCN)C(N)=O` [KFLKLKWLKSWKNFK], the MIC in experiment [1] is 6.4 µM (≈ 13 µg/mL); in [2], 12.5 µM (≈ 25.4 µg/mL); in experiment [3], 12.5 µM (≈ 25.4 µg/mL); in [4] it was 50 µM (≈ 102 µg/mL); in [5], 12.5 µM (≈ 25.4 µg/mL); in [6], 25 µM (≈ 50.9 µg/mL).

As to `CC[C@H](C)[C@H](NC(=O)[C@H](CCCN=C(N)N)NC(=O)[C@H](CCC(N)=O)NC(=O)[C@@H](NC(=O)[C@@H](NC(=O)[C@H](CCCCN)NC(=O)[C@@H](N)CCCCN)[C@@H](C)CC)C(C)C)C(=O)N[C@@H](CCCCN)C(=O)N[C@@H](CC(=O)O)C(=O)N[C@@H](Cc1ccccc1)C(=O)N[C@@H](CC(C)C)C(=O)N[C@@H](CCCN=C(N)N)C(=O)O` [KKIVQRIKDFLR], the MIC in experiment [2] amounted to 10 µM (≈ 15.4 µg/mL); in experiment [7], 5 µM (≈ 7.72 µg/mL); in experiment [3], 5 µM (≈ 7.72 µg/mL); in experiment [8], 10 µM (≈ 15.4 µg/mL).

As for `CC[C@H](C)[C@H](NC(=O)[C@H](CCCN=C(N)N)NC(=O)[C@H](C)NC(=O)[C@@H](NC(=O)[C@@H](NC(=O)[C@H](CCCN=C(N)N)NC(=O)[C@@H](N)CCCCN)[C@@H](C)CC)C(C)C)C(=O)N[C@@H](CCCCN)C(=O)N[C@@H](C)C(=O)N[C@@H](Cc1ccccc1)C(=O)N[C@@H](CC(C)C)C(=O)N[C@@H](CCCN=C(N)N)C(=O)O` [KRIVARIKAFLR], the MIC in experiment [2] was found to be 1.25 µM (≈ 1.84 µg/mL); in [7], 2.5 µM (≈ 3.68 µg/mL); in [3] it was 1.25 µM (≈ 1.84 µg/mL); in experiment [8], 2.5 µM (≈ 3.68 µg/mL).

Regarding `CC[C@H](C)[C@H](NC(=O)[C@H](CCCCN)NC(=O)[C@H](CCC(N)=O)NC(=O)[C@@H](NC(=O)[C@@H](NC(=O)[C@H](CCCN=C(N)N)NC(=O)[C@@H](N)CCCCN)[C@@H](C)CC)C(C)C)C(=O)N[C@@H](CCCCN)C(=O)N[C@@H](CC(=O)O)C(=O)N[C@@H](Cc1ccccc1)C(=O)N[C@@H](CC(C)C)C(=O)N[C@@H](CCCN=C(N)N)C(=O)O` [KRIVQKIKDFLR], the MIC in [2] was found to be 10 µM (≈ 15.4 µg/mL); in experiment [7], 10 µM (≈ 15.4 µg/mL); in [3] it was 5 µM (≈ 7.72 µg/mL); in [8], 20 µM (≈ 30.9 µg/mL).

With `CC[C@H](C)[C@H](NC(=O)[C@H](CCCN=C(N)N)NC(=O)[C@H](CCC(N)=O)NC(=O)[C@@H](NC(=O)[C@@H](NC(=O)[C@H](CCCN=C(N)N)NC(=O)[C@@H](N)CCCCN)[C@@H](C)CC)C(C)C)C(=O)N[C@@H](CCCCN)C(=O)N[C@@H](CC(=O)O)C(=O)N[C@@H](Cc1ccccc1)C(=O)N[C@@H](CC(C)C)C(=O)N[C@@H](C)C(=O)O` [KRIVQRIKDFLA], the MIC in experiment [2] is 40 µM (≈ 59.5 µg/mL); in experiment [7] it was 40 µM (≈ 59.5 µg/mL); in experiment [3] it was 40 µM (≈ 59.5 µg/mL); in [8], at least 40 µM.

In turn, `CC[C@H](C)[C@H](NC(=O)[C@@H](NC(=O)[C@@H](NC(=O)[C@H](CCCN=C(N)N)NC(=O)[C@@H](NC(=O)[C@@H](NC(=O)[C@H](CC(C)C)NC(=O)[C@@H]1CCCN1C(=O)[C@H](Cc1c[nH]c2ccccc12)NC(=O)[C@@H](NC(=O)[C@H](CCCN=C(N)N)NC(=O)[C@@H](N)CCCCN)C(C)C)C(C)C)[C@@H](C)CC)[C@@H](C)O)C(C)C)C(=O)N[C@@H](C)C(=O)NCC(=O)N[C@@H](Cc1ccc(O)cc1)C(=O)N[C@@H](CC(N)=O)C(=O)N[C@@H](CC(C)C)C(=O)N[C@@H](Cc1ccc(O)cc1)C(=O)N[C@@H](CCCN=C(N)N)C(=O)O` [KRVWPLVIRTVIAGYNLYR] showed an MIC in experiment [9] of at least 32 µM.

As to `CC(=O)N[C@@H](CCCCN)C(=O)N[C@@H](Cc1ccc(O)cc1)C(=O)N[C@H](C(=O)NCC(=O)N[C@@H](CCCCN)C(=O)N[C@@H](CS)C(=O)N[C@@H](CCCCN)C(=O)N[C@H](C(=O)N[C@@H](CCCCN)C(=O)N[C@@H](CCCCN)C(=O)N[C@@H](CC(N)=O)C(=O)N[C@@H](CCCCN)C(=O)N[C@@H](CS)C(=O)N[C@@H](CCCCN)C(N)=O)[C@@H](C)O)[C@@H](C)O` [KYTGKCKTKKNKCK], the MIC in experiment [10] amounted to 1.3 µM (≈ 2.21 µg/mL).

Turning to `CC[C@H](C)[C@H](NC(=O)[C@H](CC(C)C)NC(=O)[C@H](CCCCN)NC(=O)[C@H](CCCN=C(N)N)NC(=O)[C@H](CC(N)=O)NC(=O)[C@H](CC(C)C)NC(=O)[C@H](CCCCN)NC(=O)[C@H](Cc1c[nH]c2ccccc12)NC(=O)[C@@H](NC(=O)[C@@H](NC(=O)[C@H](CO)NC(=O)[C@H](Cc1ccccc1)NC(=O)[C@@H](N)CC(C)C)[C@@H](C)CC)[C@@H](C)CC)C(=O)N[C@@H](CCCCN)C(=O)N[C@@H](C)C(=O)O` [LFSIIWKLNRKLIKA], the MIC is over 64 µM in [11]; 64 µM (≈ 118 µg/mL) in [3]; over 64 µM in [4]; at least 64 µM in experiment [12]; over 64 µM in [6].

On to `CC(C)C[C@H](NC(=O)[C@H](CCCN=C(N)N)NC(=O)[C@H](C)NC(=O)[C@@H](NC(=O)[C@H](CCCN=C(N)N)NC(=O)[C@H](CCCN=C(N)N)NC(=O)[C@H](CC(C)C)NC(=O)[C@@H](N)CC(C)C)C(C)C)C(=O)N[C@@H](CC(C)C)C(=O)N[C@@H](CCCCN)C(=O)N[C@@H](CCCN=C(N)N)C(=O)N[C@@H](Cc1ccccc1)C(=O)N[C@@H](C)C(=O)N[C@@H](CCCCN)C(=O)O` [LLRRVARLLKRFAK], for which the MIC in experiment [1] was found to be 4.6 µM (≈ 8 µg/mL); in experiment [2], 1.15 µM (≈ 2 µg/mL); in experiment [3], 1.15 µM (≈ 2 µg/mL); in [4] it was 4.6 µM (≈ 8 µg/mL).

Turning to `CC(C)C[C@H](NC(=O)[C@H](CC(C)C)NC(=O)[C@H](CCCN=C(N)N)NC(=O)[C@H](CCCCN)NC(=O)[C@H](CCCN=C(N)N)NC(=O)[C@H](CC(C)C)NC(=O)[C@H](CCCCN)NC(=O)[C@H](CCCN=C(N)N)NC(=O)[C@H](CC(C)C)NC(=O)[C@H](Cc1cnc[nH]1)NC(=O)[C@H](CO)NC(=O)[C@H](C)NC(=O)[C@H](CC(C)C)NC(=O)[C@H](CCCN=C(N)N)NC(=O)[C@@H](NC(=O)[C@H](CC(C)C)NC(=O)[C@H](CCCN=C(N)N)NC(=O)[C@H](CCCCN)NC(=O)[C@H](CCCN=C(N)N)NC(=O)[C@H](CC(C)C)NC(=O)[C@H](CCCCN)NC(=O)[C@H](CCCN=C(N)N)NC(=O)[C@@H](N)CC(C)C)C(C)C)C(=O)O` [LRKLRKRLVRLASHLRKLRKRLL], the MIC was 2.74 µM (≈ 8 µg/mL) in [2]; 5.47 µM (≈ 16 µg/mL) in experiment [7]; over 10.9 µM in [13]; 2.05 µM (≈ 6 µg/mL) in experiment [3]; 2.05 µM (≈ 6 µg/mL) in experiment [12].

In the case of `C[C@H](NC(=O)[C@H](Cc1c[nH]c2ccccc12)NC(=O)[C@H](CCCCN)NC(=O)[C@H](Cc1ccccc1)NC(=O)[C@H](CCCN=C(N)N)NC(=O)[C@H](Cc1c[nH]c2ccccc12)NC(=O)[C@@H](N)CCCN=C(N)N)C(=O)N[C@@H](CCCCN)C(=O)N[C@@H](CCCCN)C(=O)O` [RWRFKWAKK], the MIC in experiment [1] was at least 76.6 µM; in experiment [14], over 76.6 µM; in experiment [3], over 76.6 µM; in experiment [4], over 76.6 µM.

Regarding `CC[C@H](C)[C@H](NC(=O)[C@H](CCCCN)NC(=O)[C@H](CS)NC(=O)[C@H](C)NC(=O)[C@@H](NC(=O)[C@H](Cc1ccccc1)NC(=O)[C@H](CCCCN)NC(=O)[C@H](CC(C)C)NC(=O)[C@H](CCCCN)NC(=O)[C@@H](NC(=O)[C@H](CCCCN)NC(=O)[C@H](CCCCN)NC(=O)[C@H](CC(C)C)NC(=O)[C@H](CC(N)=O)NC(=O)[C@H](CCCCN)NC(=O)[C@H](CC(C)C)NC(=O)[C@@H](NC(=O)[C@H](CO)NC(=O)[C@H](CC(C)C)NC(=O)[C@H](CCSC)NC(=O)[C@@H](N)CO)C(C)C)C(C)C)C(C)C)C(=O)N[C@@H](CC(N)=O)C(=O)N[C@@H](CCCCN)C(=O)N[C@@H](CCC(N)=O)C(=O)N[C@@H](CS)C(=O)O` [SMLSVLKNLKKVKLKFVACKINKQC], the MIC was over 200 µM in experiment [15], 200 µM (≈ 573 µg/mL) in experiment [16] and over 200 µM in [10].

Regarding `CC(C)C[C@H](NC(=O)[C@H](CCCCN)NC(=O)[C@@H]1CCCN1C(=O)[C@H](CC(C)C)NC(=O)[C@H](CC(C)C)NC(=O)[C@@H]1CCCN1C(=O)[C@H](CCCCN)NC(=O)[C@H](CC(C)C)NC(=O)[C@H](CCCCN)NC(=O)[C@@H]1CCCN1C(=O)[C@H](CC(C)C)NC(=O)[C@H](CC(C)C)NC(=O)[C@H](CC(C)C)NC(=O)[C@H](CCCCN)NC(=O)[C@H](CC(C)C)NC(=O)[C@H](CC(C)C)NC(=O)[C@H](CCCCN)NC(=O)[C@@H](N)Cc1ccc(O)cc1)C(N)=O` [YKLLKLLLPKLKPLLPKL], the MIC is 19.9 µM (≈ 42.4 µg/mL) in [2], 23.3 µM (≈ 49.7 µg/mL) in experiment [7] and over 79.7 µM in experiment [14].

In general, MIC refers to the lowest concentration found to suppress growth. A high value points to a less susceptible organism.
